These results are taken from paper PMC7315563, “Bioactive fluorenes. Part III: 2,7-dichloro-9H-fluorene-based thiazolidinone and azetidinone analogues as anticancer and antimicrobial against multidrug resistant strains agents” (BMC Chemistry, 2020).

In brackets after ≈: the same amount, converted by molar mass.

What all share (type): cell-based
Assay [1] concerns Acinetobacter baumannii (A. baumannii), multidrug resistant clinical isolate. The assay is described as follows: agar well diffusion assay. As to conditions: 24 h, PC positive control Gentamicin 10 µg/mL. The method, boiled down:
(§1)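 Multidrug-resistant clinical isolates swabbed on Mueller–Hinton agar at about 1–5 × 10^5 CFU/mL; 0.5 cm wells received 50 μL compound at 500 μg/mL in 1% DMSO. Incubation 24 h, 37 °C for bacteria and C. albicans, 25 °C for Aspergillus; inhibition zone diameter measured in mm.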

In assay [2] the test system is Escherichia coli (E. coli), multidrug resistant clinical isolate. Put plainly: agar well diffusion assay. Particulars: 24 h, PC positive control Gentamicin 10 µg/mL. The gist of the method: as §1
Background: In agar diffusion tests the substance spreads into inoculated agar from a disc or well.

The subject of assay [3] is Klebsiella pneumoniae (K. pneumoniae), multidrug resistant clinical isolate. The assay is described as follows: agar well diffusion assay. Particulars: 24 h, PC positive control Gentamicin 10 µg/mL. The method, boiled down:
as §1

Assay [4] concerns Pseudomonas aeruginosa (P. aeruginosa), multidrug resistant clinical isolate. Put plainly: agar well diffusion assay. As to conditions: 24 h, PC positive control Gentamicin 10 µg/mL. The method, boiled down:
as §1

For the next assay, the system named is E. coli. Put plainly: MIC by broth microdilution method (resazurin end point). As to conditions: Escherichia coli, 24 h at 37 °C. As to the method:
(§2) Determination of Minimum inhibitory concentrations (MIC) of flourene derivatives was done using broth microdilution method. The procedure involved preparation of twofold dilutions of the fluorene derivatives ranging from (500–7.8 μg/mL) in sterile Mueller–Hinton broth inside the wells of 96-well microplate (Sarstedt, Germany). The inoculums of test strains prepared from fresh overnight cultures were adjusted to 0.5 McFarland standards, which equals to 1–2 × 10^8 CFU/mL for bacteria, the procedure was done according to CLSI 2012 [42]. […] For this assay the positive control agents were vancomycin (range: 0.7–50 μg/mL), gentamicin (range: 0.15–10 μg/mL) and the negative control was 1% DMSO.
(§3) For proper determination of the MIC end point resazurin dye has been used. A stock solution of resazurin sodium salt powder (Titan Biotech) was prepared at 0.02% (wt/vol) in distilled water, sterilized by filtration through a […] filter into a sterile light protected container then stored protected from light at 4 °C for up to 1 week, or at − […] for long term use, then 10–15% resazurin solution of the total volume in wells was added to each well and incubation for 1–4 h at 37 °C was done. A change in color from blue to pink indicates the growth of bacteria, and MIC was defined as the lowest concentration of the drug that prevented this change in color.
Background: Broth dilution looks for growth in wells or tubes with falling amounts of substance.

For a further assay, the system named is P. aeruginosa. The description is as above. Particulars: Pseudomonas aeruginosa, 24 h at 37 °C. The method, then: as §2, §3
The next assay relates to K. pneumoniae. Described as above. Particulars: Klebsiella pneumoniae, 24 h at 37 °C. As to the method:
as §2, §3

The subject of assay [5] is methicillin-resistant Staphylococcus aureus (MRSA). The assay is described as follows: agar well diffusion assay. As to conditions: Staphylococcus aureus, 24 h, read-out: Mean zone of inhibition. The method, boiled down: as §1
Assay [6] deals with Staphylococcus aureus (S. aureus), multidrug resistant clinical isolate. Put plainly: agar well diffusion assay. Particulars: Staphylococcus aureus, 24 h, read-out: Mean zone of inhibition. The method, boiled down:
as §1

Assay [7] has as its system Streptococcus pneumoniae (S. pneumoniae), multidrug resistant clinical isolate. Put plainly: agar well diffusion assay. As to conditions: Streptococcus pneumoniae, 24 h, read-out: Mean zone of inhibition. The method, boiled down:
as §1

Another assay concerns MRSA. The assay is described as follows: MIC by broth microdilution method (resazurin end point). Particulars: Staphylococcus aureus, 24 h. As to the method:
as §2, §3

The subject of a further assay is S. aureus. The assay is described as above. Particulars: Staphylococcus aureus, 24 h. The method, then: as §2, §3
Assay [8] concerns Aspergillus niger (A. niger). Put plainly: agar well diffusion assay. Particulars: 24 h, PC positive control fluconazole 25 µg/mL. The method, boiled down: as §1
For assay [9], the system named is Aspergillus flavus (A. flavus). The assay is described as follows: agar well diffusion assay. Particulars: 24 h, PC positive control fluconazole 25 µg/mL. The method, boiled down: as §1
Assay [10] has as its system Candida albicans (C. albicans). Put plainly: agar well diffusion assay. Particulars: 24 h, PC positive control fluconazole 25 µg/mL. The gist of the method: as §1

The zone of inhibition is the size of the clear area around the sample on an inoculated plate. A word on the MIC: it is the lowest concentration found to suppress growth. Read a high MIC as weaker potency. As to `CNC(C)C1CCC(N)C(OC2C(N)CC(N)C(OC3OCC(C)(O)C(NC)C3O)C2O)O1` (stereo not drawn) [Gentamicin, reference compound], the zone of inhibition at 10 µg/mL in assay [1] turned out to be 20 mm; in [2], 28 mm; in [3], 20 mm; in assay [4], 30 mm. Also, the minimum inhibitory concentration (MIC) in the assay with E. coli, with P. aeruginosa and against K. pneumoniae was 0.3 mg/L (≈ 0.628 µM) throughout.
Consider `CN[C@H](CC(C)C)C(=O)N[C@H]1C(=O)N[C@@H](CC(N)=O)C(=O)N[C@H]2C(=O)N[C@H]3C(=O)N[C@H](C(=O)N[C@H](C(=O)O)c4cc(O)cc(O)c4-c4cc3ccc4O)[C@H](O)c3ccc(c(Cl)c3)Oc3cc2cc(c3O[C@@H]2O[C@H](CO)[C@@H](O)[C@H](O)[C@H]2O[C@H]2C[C@](C)(N)[C@H](O)[C@H](C)O2)Oc2ccc(cc2Cl)[C@H]1O` [Vancomycin, reference compound], for which the zone of inhibition at 50 µg/mL in assay [5] came out at 26 mm; in assay [6] it was 28 mm; in assay [7] it was 20 mm. Moreover, the minimum inhibitory concentration (MIC) in the assay with MRSA and in the assay with S. aureus was 0.7 mg/L (≈ 0.483 µM) in each case.
On to `OC(Cn1cncn1)(Cn1cncn1)c1ccc(F)cc1F` [fluconazole], for which the zone of inhibition at 25 µg/mL in assay [8] was 18 mm; in assay [9], 18 mm; in [10] it was 20 mm.
